The values that follow come from patent publication EP4596574A1, “GLP-1/GCG/GIP TRIPLE-RECEPTOR AGONIST AND USE THEREOF” (Sunshine Lake Pharma Co., Ltd., priority 2022, dated 2024).

What is called EC50 is the midpoint of the concentration-response curve. Read a high EC50 as weaker potency. A word on the AUC(0-inf): it is total exposure, with the tail of the curve extrapolated. A higher AUC(0-inf) goes with high exposure. As a reminder, the AUC(0-t) is exposure summed from dosing to a finite time, without extrapolation to infinity. A high value points to high exposure. The term Cmax denotes the peak of the concentration-time curve. The term Tmax denotes the time from dosing to the highest level.

Marks after values point to notes of the source that are not given here. Starred links: 1 amine or outer side, 2 acyl side, 3 side chain; linkers in the order of their positions; H or OH if unused. Non-standard residues stand in square brackets, D forms with d. Residues, ends and D or L forms follow the SMILES beside them. Groups on a side chain read outwards from the residue. *: point of attachment. C18 diacid = O=C(O)CCCCCCCCCCCCCCCCC(=O)*; αMePhe(2-F) = C[C@](N)(Cc1ccccc1F)C(=O)O; γGlu = O=C(O)[C@H](CCC(=O)[*:2])N[*:1]; AEEA = NCCOCCOCC(=O)O; Aib = CC(C)(N)C(=O)O

In one series the target is T1, GIPR (Homo sapiens, UniProt P48546).
T1 construct: expressed in transfected cells; host or cells: HEK293 (HEK293-GIPR)
T1 sequence (P48546 22-466): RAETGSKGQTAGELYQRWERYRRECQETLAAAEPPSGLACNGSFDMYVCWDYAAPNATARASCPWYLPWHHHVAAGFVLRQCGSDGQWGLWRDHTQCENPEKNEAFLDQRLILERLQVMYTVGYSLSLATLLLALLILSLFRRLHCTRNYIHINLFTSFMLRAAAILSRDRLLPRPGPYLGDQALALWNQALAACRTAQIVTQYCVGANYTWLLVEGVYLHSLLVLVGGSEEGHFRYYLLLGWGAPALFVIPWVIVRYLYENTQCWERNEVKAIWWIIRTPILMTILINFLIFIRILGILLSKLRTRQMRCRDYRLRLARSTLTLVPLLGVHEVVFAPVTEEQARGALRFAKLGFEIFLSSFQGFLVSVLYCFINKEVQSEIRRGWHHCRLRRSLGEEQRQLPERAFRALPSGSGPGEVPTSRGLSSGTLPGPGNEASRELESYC
The series can be described thus: In vitro cell activity, cAMP production in HEK293 cells expressing GIPR. Format: cell-based. The essentials: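 HEK293 cells expressing human GIPR, thawed and diluted to 4×10^5 cells/mL, are stimulated with test compound. cAMP is measured by HTRF competition between cAMP-d2 and anti-cAMP cryptate. EC50 comes from a four-parameter nonlinear fit of signal ratio against concentration.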
Background: Changes in cAMP serve as a functional read-out for many G protein-coupled receptors.

In the next series the target is T2, GLP-1R (Homo sapiens, UniProt P43220).
T2 construct: expressed in transfected cells; host or cells: HEK293 (HEK293-GLP-1R)
The series can be described thus: In vitro cell activity, cAMP production in HEK293 cells expressing GLP-1R. Format: cell-based. An outline of the steps: (§1)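 cAMP output read as 665/620 nm HTRF ratio after adding cAMP-d2 plus anti-cAMP cryptate and incubating 1 h at room temperature in the dark or overnight at 4 °C. Cells: HEK293 expressing human GLP-1R or GCGR, plated from a 4×10^5 cells/mL suspension. Four-parameter fit gives EC50.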

Series [1] is described as follows: Glucose tolerance assessment in normal C57BL/6 mice (Example 5). Format: in vivo. The conditions noted are these: for Blood glucose level (mM) 15 min / Blood glucose level (mM) 30 min / Blood glucose level (mM) 60 min / Blood glucose level (mM) 90 min / Blood glucose level (mM) 0 min / AUC0-90 min: 3 nmol/kg s.c. single dose, 24 h after administration; for Blood glucose level (mM) 15 min: 15 min after 2 g/kg glucose i.p.; for Blood glucose level (mM) 30 min: 30 min after 2 g/kg glucose i.p.; for Blood glucose level (mM) 60 min: 60 min after 2 g/kg glucose i.p.; for Blood glucose level (mM) 90 min: 90 min after 2 g/kg glucose i.p.; for Blood glucose level (mM) 0 min: basal before 2 g/kg glucose i.p.; for AUC0-90 min: blood glucose AUC, 2 g/kg glucose i.p. The essentials: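 Normal C57BL/6 mice given a single dose, fasted 12 h starting 12 h post-dose, then challenged with 2 g/kg glucose i.p. Tail-vein glucose measured at baseline and 15, 30, 60, 90 min. AUC0~90min calculated from the glucose–time curve per dose group.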

The target in a further series is T3, GCGR (Homo sapiens, UniProt P47871).
T3 construct: expressed in transfected cells; host or cells: HEK293 (HEK293-GCGR)
The series can be described thus: In vitro cell activity, cAMP production in HEK293 cells expressing GCGR. Format: cell-based. An outline of the steps: as §1

The nature of series [2]: Pharmacokinetic study in rats, single subcutaneous injection. The following applies: male, Sprague Dawley, in vivo, sc, rat, 50 nmol/kg single subcutaneous injection, plasma; for half-life: read-out: T1/2 (converted); for Tmax: read-out: Tmax. The procedure:
The pharmacokinetic study of each polypeptide compound prepared in Example 1 was conducted using male Sprague Dawley rats. There were 3 male rats in each group. […] The dose was 50 nmol/kg, and a single subcutaneous injection was given (see Table 3 for specific peptide compounds). After administration, plasma was collected on the specified days and time points, and the concentration of each peptide compound in the plasma was detected by LC-MS/MS method. The pharmacokinetic parameters were obtained based on the concentration data, which were used to describe the pharmacokinetic properties of the peptide in rats after subcutaneous injection. Table 3: Summary of pharmacokinetic parameters of some triple-target peptides in rats

T2 sequence (P43220 24-463, species assumed): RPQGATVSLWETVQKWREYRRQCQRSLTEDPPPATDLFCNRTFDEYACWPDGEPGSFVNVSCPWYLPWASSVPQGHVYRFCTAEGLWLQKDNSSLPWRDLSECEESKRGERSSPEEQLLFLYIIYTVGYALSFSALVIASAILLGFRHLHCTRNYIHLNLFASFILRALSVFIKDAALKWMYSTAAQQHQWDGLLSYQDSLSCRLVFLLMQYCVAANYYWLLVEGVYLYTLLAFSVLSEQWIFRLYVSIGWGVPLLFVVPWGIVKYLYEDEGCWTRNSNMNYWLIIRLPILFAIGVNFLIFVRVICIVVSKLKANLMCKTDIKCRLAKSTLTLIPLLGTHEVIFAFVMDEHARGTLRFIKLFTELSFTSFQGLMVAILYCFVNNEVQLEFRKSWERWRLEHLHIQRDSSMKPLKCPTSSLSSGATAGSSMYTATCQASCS
T3 sequence (P47871 26-477, species assumed): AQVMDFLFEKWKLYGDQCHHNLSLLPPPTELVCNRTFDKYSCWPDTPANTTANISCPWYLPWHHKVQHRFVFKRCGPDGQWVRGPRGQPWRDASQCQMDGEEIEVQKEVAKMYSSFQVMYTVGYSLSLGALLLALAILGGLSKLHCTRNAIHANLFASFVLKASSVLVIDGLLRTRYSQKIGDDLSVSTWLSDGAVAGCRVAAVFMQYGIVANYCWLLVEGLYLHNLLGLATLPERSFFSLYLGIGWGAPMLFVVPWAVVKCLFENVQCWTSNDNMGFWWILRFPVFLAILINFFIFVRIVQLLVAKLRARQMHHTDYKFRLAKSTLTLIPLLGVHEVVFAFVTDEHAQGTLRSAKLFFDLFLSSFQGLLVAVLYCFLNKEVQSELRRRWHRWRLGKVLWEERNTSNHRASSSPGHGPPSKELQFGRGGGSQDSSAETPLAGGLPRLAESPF

At GIPR, `CC[C@H](C)[C@H](NC(=O)[C@H](CCCCN)NC(=O)[C@H](CC(=O)O)NC(=O)[C@H](CCCCNC(=O)COCCOCCNC(=O)CC[C@H](NC(=O)CCCCCCCCCCCCCCCCC(=O)O)C(=O)O)NC(=O)[C@H](CC(C)C)NC(=O)[C@@H](NC(=O)[C@H](CO)NC(=O)[C@H](Cc1ccc(O)cc1)NC(=O)[C@H](CC(=O)O)NC(=O)[C@H](CO)NC(=O)[C@@H](NC(=O)[C@](C)(Cc1ccccc1F)NC(=O)[C@@H](NC(=O)CNC(=O)[C@H](CCC(N)=O)NC(=O)C(C)(C)NC(=O)[C@@H](N)Cc1ccc(O)cc1)[C@@H](C)O)[C@@H](C)O)[C@@H](C)CC)C(=O)N[C@@H](C)C(=O)N[C@@H](CCC(N)=O)C(=O)N[C@@H](CCC(N)=O)C(=O)N[C@@H](C)C(=O)N[C@@H](Cc1ccccc1)C(=O)N[C@H](C(=O)N[C@@H](CCC(=O)O)C(=O)N[C@@H](Cc1ccc(O)cc1)C(=O)N[C@@H](CC(C)C)C(=O)N[C@@H](CC(C)C)C(=O)N[C@@H](CCC(=O)O)C(=O)NCC(=O)NCC(=O)N1CCC[C@H]1C(=O)N[C@@H](CO)C(=O)N[C@@H](CO)C(=O)NCC(=O)N[C@@H](C)C(=O)N1CCC[C@H]1C(=O)N1CCC[C@H]1C(=O)N1CCC[C@H]1C(=O)N[C@@H](CO)C(N)=O)[C@@H](C)CC` [HEC-PT113] (H-Y[Aib]QGT[αMePhe(2-F)]TSDYSILK([AEEA-γGlu-C18 diacid])DKIAQQAFIEYLLEGGPSSGAPPPS-NH2) showed a half-maximal effective concentration (EC50) of 0.0188 nM. The same compound registered a half-maximal effective concentration (EC50) on GLP-1R of 0.103 nM. Further, in series [1], the “Blood glucose level (mM) 15 min” value was determined as 12.6 ± 1.7 mM, the “Blood glucose level (mM) 30 min” value turned out to be 8.0 ± 1.0 mM, the “Blood glucose level (mM) 60 min” value stood at 7.9 ± 1.3 mM and the “Blood glucose level (mM) 90 min” value amounted to 6.7 ± 0.8 mM. Also, in series [1], the “Blood glucose level (mM) 0 min” value amounted to 4.6 ± 0.9 mM and the AUC0-90 min is on record as 743.5±48.5^a. For the same compound, the “improvement of glucose tolerance compared with LY3298176” value in series [1] (24 hours after a single administration, 3 nmol/kg) is on record as “improved glucose tolerance in mice better than the positive control LY3298176”. For the same compound, the EC50 at GCGR is 0.171 nM. In addition, in series [2], the area under the curve AUC(0-inf) stood at 27900 ± 4180 ng·h/mL, the AUC(0-t) was found to be 27700 ± 4110 ng·h/mL, the highest level (Cmax) was 714 ± 63.2 ng/mL and the half-life was 11 ± 0.62 h. For the same compound, the time of peak concentration (Tmax) in series [2] is 13 ± 9.9 h.
At GIPR, `CC[C@H](C)[C@H](NC(=O)[C@H](Cc1ccccc1)NC(=O)[C@H](C)NC(=O)[C@H](CCCNC(=N)N)NC(=O)[C@H](CCC(N)=O)NC(=O)[C@H](CCCNC(=N)N)NC(=O)[C@H](CCCCNC(=O)COCCOCCNC(=O)CC[C@H](NC(=O)CCCCCCCCCCCCCCCCC(=O)O)C(=O)O)NC(=O)[C@H](CCC(=O)O)NC(=O)[C@H](CC(=O)O)NC(=O)[C@H](CC(C)C)NC(=O)[C@H](CC(C)C)NC(=O)[C@@H](NC(=O)[C@H](CO)NC(=O)[C@H](Cc1ccc(O)cc1)NC(=O)[C@H](CC(=O)O)NC(=O)[C@H](CO)NC(=O)[C@@H](NC(=O)[C@](C)(Cc1ccccc1F)NC(=O)[C@@H](NC(=O)CNC(=O)[C@H](Cc1c[nH]cn1)NC(=O)C(C)(C)NC(=O)[C@@H](N)Cc1ccc(O)cc1)[C@@H](C)O)[C@@H](C)O)[C@@H](C)CC)C(=O)N[C@@H](CCC(=O)O)C(=O)N[C@@H](Cc1ccc(O)cc1)C(=O)N[C@@H](CC(C)C)C(=O)N[C@@H](CC(C)C)C(=O)N[C@@H](C)C(=O)NCC(=O)NCC(=O)N1CCC[C@H]1C(=O)N[C@@H](CO)C(=O)N[C@@H](CO)C(=O)NCC(=O)N[C@@H](C)C(=O)N1CCC[C@H]1C(=O)N1CCC[C@H]1C(=O)N1CCC[C@H]1C(=O)N[C@@H](CO)C(=O)O` [HEC-PT119] displayed an EC50 of 0.0484 nM. The same compound returned an EC50 on GLP-1R of 0.189 nM. In series [1], the “Blood glucose level (mM) 15 min” value was determined as 14.0 ± 2.2 mM, the “Blood glucose level (mM) 30 min” value was determined as 10.8 ± 1.8 mM, the “Blood glucose level (mM) 60 min” value is 7.8 ± 0.7 mM and the “Blood glucose level (mM) 90 min” value was 6.7 ± 0.7 mM. Besides, in series [1], the “Blood glucose level (mM) 0 min” value stood at 4.1 ± 0.4 mM and the AUC0-90 min is 817.4±95.1^a. Further, the EC50 at GCGR was 0.266 nM. For the same compound, in series [2], the total exposure AUC(0-inf) was determined as 43800 ± 10700 ng·h/mL, the AUC(0-t) was 43500 ± 10700 ng·h/mL, the concentration peaked (Cmax) at 974 ± 248 ng/mL and the half-life is 16 ± 1.6 h. The Tmax in series [2] turned out to be 19 ± 9.2 h.
